How the values were obtained:
Valsa ceratosperma = test: Growth of germs on potato dextrose-agar medium containing the compound (Ex. 1); assay type: cell-based; parameters: key: +++: extremely much growth; ++: much growth; +: a little growth; -: no growth; conditions: two weeks, 25° C.
Description: (§1) Ethyl 2-(2-hydroxyethylamino)-3-benzoylpropionate hydrochloride was added to potato dextrose-agar culture medium in the concentration indicated in Table 1 and the suspensions of various kinds of germs were dropped on the culture medium. After incubation of the germs for two weeks in thermostat (25° C.), the growing conditions were observed.
(§2) In Table 1, +++, ++, + and - represent "extremely much growth", "much growth", "a little growth" and "no growth" respectively.

[1] = tested on: Fusarium oxysporum f. lycopersici; test: Growth of germs on potato dextrose-agar medium containing the compound (Ex. 8); assay type: cell-based; parameters: key: +++: extremely much growth; ++: much growth; +: a little growth; -: no growth; conditions: two weeks, 25° C.
Description: as §1, §2

Cercospora kikuchii = test: Growth of germs on potato dextrose-agar medium containing the compound (Ex. 15); assay type: cell-based; parameters: key: +++: extremely much growth; ++: much growth; +: a little growth; -: no growth; conditions: two weeks, 25° C.
Description: as §1, §2

Cladosporium cucumerium [2] = test: Growth of germs on potato dextrose-agar medium containing the compound (Ex. 4); assay type: cell-based; parameters: key: +++: extremely much growth; ++: much growth; +: a little growth; -: no growth; conditions: two weeks, 25° C.
Description: as §1, §2

Cladosporium fulvum = test: Growth of germs on potato dextrose-agar medium containing the compound (Ex. 5); assay type: cell-based; parameters: key: +++: extremely much growth; ++: much growth; +: a little growth; -: no growth; conditions: two weeks, 25° C.
Description: as §1, §2

Cladosporium cucumerium [3] = test: Prevention effect for cucumber scab (Ex. 19); assay type: in vivo; conditions: for Germicidal damage to seedlings: cucumber seedlings; for Percentage of leaf area with disease spots / Percentage of leaves attacked with the disease / Prevention value per leaf (Perfect prevention = 100): eighth day after spraying
Source text: The prevention effect for cucumber scab was examined in the following manner.
An aqueous solution of ethyl 2-(2-hydroxyethylamino)-3-benzoylpropionate hydrochloride (2500 ppm or 5000 ppm) was sprayed on cucumber seedlings (bifoliate age) of Tokiwa Hikari No. 3 (p type) variety which were planted in sections in two rows of three.
After air-drying the seedlings, a spore suspention of Cladosporium cucumerium was inoculated on the test seedlings by means of a glass sprayer. The inoculated seedlings were kept at 18°-20° C. for four days in an inoculation box and then allowed to stand in a glass chamber.
The leaf area on which scab spots appeared was measured on the eighth day after spraying the aqueous germicide solution. The spotted area is expressed as a prevention value.

[4] = tested on: Colletotrichum lagenarium; test: Growth of germs on potato dextrose-agar medium containing the compound (Ex. 9, germ of anthracnose on cucumbers); assay type: cell-based; parameters: key: +++: extremely much growth; ++: much growth; +: a little growth; -: no growth; conditions: two weeks, 25° C.
Description: as §1, §2
^1 Germ of anthracnose on cucumbers

Verticillium alboatrum = test: Growth of germs on potato dextrose-agar medium containing the compound (Ex. 2); assay type: cell-based; parameters: key: +++: extremely much growth; ++: much growth; +: a little growth; -: no growth; conditions: two weeks, 25° C.
Description: as §1, §2

Botrytis alli = test: Growth of germs on potato dextrose-agar medium containing the compound (Ex. 3); assay type: cell-based; parameters: key: +++: extremely much growth; ++: much growth; +: a little growth; -: no growth; conditions: two weeks, 25° C.
Description: as §1, §2

Mycosphaerella melonis = test: Growth of germs on potato dextrose-agar medium containing the compound (Ex. 13); assay type: cell-based; parameters: key: +++: extremely much growth; ++: much growth; +: a little growth; -: no growth; conditions: two weeks, 25° C.
Description: as §1, §2

CCOC(=O)C(CC(=O)c1ccccc1)NCCO.Cl (centres unmarked) [Ethyl 2-(2-hydroxyethylamino)-3-benzoylpropionate hydrochloride]
growing conditions (growth of germ) (Valsa ceratosperma; 10 ppm): - | growing conditions (growth of germ) (Valsa ceratosperma; 20 ppm): - | growing conditions (growth of germ) (Valsa ceratosperma; 50 ppm): - | growing conditions (growth of germ) (Valsa ceratosperma; 100 ppm): - | growing conditions (growth of germ) (Valsa ceratosperma; 200 ppm): - | growing conditions (growth of germ) ([1]; 10 ppm): +++ | growing conditions (growth of germ) ([1]; 20 ppm): ++ | growing conditions (growth of germ) ([1]; 50 ppm): - | growing conditions (growth of germ) ([1]; 100 ppm): - | growing conditions (growth of germ) ([1]; 200 ppm): - | growing conditions (growth of germ) (Cercospora kikuchii; 10 ppm): + | growing conditions (growth of germ) (Cercospora kikuchii; 20 ppm): - | growing conditions (growth of germ) (Cercospora kikuchii; 50 ppm): - | growing conditions (growth of germ) (Cercospora kikuchii; 100 ppm): - | growing conditions (growth of germ) (Cercospora kikuchii; 200 ppm): - | growing conditions (growth of germ) (Cladosporium cucumerium [2]; 10 ppm): +++ | growing conditions (growth of germ) (Cladosporium cucumerium [2]; 20 ppm): +++ | growing conditions (growth of germ) (Cladosporium cucumerium [2]; 50 ppm): - | growing conditions (growth of germ) (Cladosporium cucumerium [2]; 100 ppm): - | growing conditions (growth of germ) (Cladosporium cucumerium [2]; 200 ppm): - | growing conditions (growth of germ) (Cladosporium fulvum; 10 ppm): ++ | growing conditions (growth of germ) (Cladosporium fulvum; 20 ppm): - | growing conditions (growth of germ) (Cladosporium fulvum; 50 ppm): - | growing conditions (growth of germ) (Cladosporium fulvum; 100 ppm): - | growing conditions (growth of germ) (Cladosporium fulvum; 200 ppm): - | Germicidal damage to seedlings (Cladosporium cucumerium [3]; 2500 ppm): none | Percentage of leaf area with disease spots (Cladosporium cucumerium [3]; 2500 ppm): 25.0% | Percentage of leaves attacked with the disease (Cladosporium cucumerium [3]; 2500 ppm): 100% | Prevention value per leaf (Perfect prevention = 100) (Cladosporium cucumerium [3]; 2500 ppm): 63.4 | Germicidal damage to seedlings (Cladosporium cucumerium [3]; 5000 ppm): none | Percentage of leaf area with disease spots (Cladosporium cucumerium [3]; 5000 ppm): 20.0% | Percentage of leaves attacked with the disease (Cladosporium cucumerium [3]; 5000 ppm): 100% | Prevention value per leaf (Perfect prevention = 100) (Cladosporium cucumerium [3]; 5000 ppm): 70.7 | growing conditions (growth of germ) ([4]; 10 ppm): +++ | growing conditions (growth of germ) ([4]; 20 ppm): - | growing conditions (growth of germ) ([4]; 50 ppm): - | growing conditions (growth of germ) ([4]; 100 ppm): - | growing conditions (growth of germ) ([4]; 200 ppm): - | growing conditions (growth of germ) (Verticillium alboatrum; 10 ppm): +++ | growing conditions (growth of germ) (Verticillium alboatrum; 20 ppm): ++ | growing conditions (growth of germ) (Verticillium alboatrum; 50 ppm): - | growing conditions (growth of germ) (Verticillium alboatrum; 100 ppm): - | growing conditions (growth of germ) (Verticillium alboatrum; 200 ppm): - | growing conditions (growth of germ) (Botrytis alli; 10 ppm): + | growing conditions (growth of germ) (Botrytis alli; 20 ppm): - | growing conditions (growth of germ) (Botrytis alli; 50 ppm): - | growing conditions (growth of germ) (Botrytis alli; 100 ppm): - | growing conditions (growth of germ) (Botrytis alli; 200 ppm): - | growing conditions (growth of germ) (Mycosphaerella melonis; 10 ppm): +++ | growing conditions (growth of germ) (Mycosphaerella melonis; 20 ppm): - | growing conditions (growth of germ) (Mycosphaerella melonis; 50 ppm): - | growing conditions (growth of germ) (Mycosphaerella melonis; 100 ppm): - | growing conditions (growth of germ) (Mycosphaerella melonis; 200 ppm): -

Source: patent US4241083A, “Germicidal composition for agriculture and horticulture” (priority 1978, dated 1980)
